Several values for one entry are separate records, joined by “and”; a condition that tells them apart may be missing. Equal values may be shown once.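 Cultured in 96-well plates, cells were exposed to test compound for 48 hours across five concentrations. GI50 is the concentration that inhibits growth by half. TGI: total growth inhibition.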
What was measured:
Test in all cases: DTP human tumour cell line panel, 48 h
COLO 205 colon = system: COLO 205 colon
UO-31 renal = system: UO-31 renal
K-562 leukemia = system: K-562 leukemia
CAKI-1 renal = system: CAKI-1 renal
OVCAR-5 ovarian = system: OVCAR-5 ovarian
ACHN renal = system: ACHN renal
OVCAR-3 ovarian = system: OVCAR-3 ovarian
HT29 colon = system: HT29 colon
UACC-62 melanoma = system: UACC-62 melanoma

SMILES | GI50 (COLO 205 colon) | TGI (COLO 205 colon) | GI50 (UO-31 renal) | TGI (UO-31 renal) | GI50 (K-562 leukemia) | TGI (K-562 leukemia) [µM] | GI50 (CAKI-1 renal) | TGI (CAKI-1 renal) | GI50 (OVCAR-5 ovarian) | TGI (OVCAR-5 ovarian) | GI50 (ACHN renal) | TGI (ACHN renal) | GI50 (OVCAR-3 ovarian) | TGI (OVCAR-3 ovarian) | GI50 (HT29 colon) | TGI (HT29 colon) | GI50 (UACC-62 melanoma) | TGI (UACC-62 melanoma)
CCNC(=O)C[C@@H]1N=C(c2ccc(Cl)cc2)c2cc(OC)ccc2-n2c(C)nnc21 | 0.994 µM | > 100 µM | 0.659 µM | > 100 µM | 4.18 µM | > 100 | 0.584 µM | > 100 µM | > 100 µM | > 100 µM | 7.4 µM | > 100 µM | 6.29 µM | > 100 µM | 1.02 µM | > 100 µM | 0.618 µM | > 100 µM
CNc1ccccc1C(=O)N/N=C/C=C/c1ccccc1 | 0.671 µM | 10.3 µM | 8.08 µM | 97.9 µM | 0.44 µM | > 100 | 2.79 µM | > 100 µM | 6.64 µM | > 76.5 µM | 11.8 µM | > 100 µM | 0.563 µM | > 100 µM | 0.373 µM | 12.9 µM | 0.816 µM | 32.7 µM
C[Si](C)(C)C#CCO[Si](C)(C)C |  | > 100 µM |  | > 100 µM |  | > 100 |  | > 100 µM |  | > 100 µM |  | > 100 µM |  | > 100 µM |  | > 100 µM |  | > 100 µM
O=C(Nc1ccc(Cl)c([N+](=O)[O-])c1)Nc1nc2ccccc2s1 | 1.78 µM | 3.39 µM | 2.91 µM |  | 4.15 µM | > 100 | 2.08 µM | 6.46 µM | 4.49 µM | 19.3 µM | 3.34 µM | 12.8 µM | 3.27 µM | 10.6 µM | 3.51 µM | 11.6 µM | 4.05 µM | 18 µM
COc1cc2oc(=O)cc(C)c2cc1[N+](=O)[O-] |  | > 60.6 µM |  | > 87.6 µM |  | > 100 |  | > 51.5 µM |  | > 79 µM |  | > 100 µM |  | 64.1 µM |  | > 57.8 µM |  | 34.6 µM
S=CN1CCCCC1 |  | > 100 µM |  | > 100 µM |  | > 100 |  | > 100 µM |  | > 100 µM |  | > 100 µM |  | > 100 µM |  | > 100 µM |  | > 100 µM
CN(C)/[N+]([O-])=N/Oc1cc(Nc2cccc(C(=O)O)c2)c([N+](=O)[O-])cc1[N+](=O)[O-] | > 100 µM | > 100 µM | > 100 µM | > 100 µM | 61.6 µM | > 100 | > 100 µM | > 100 µM | > 100 µM | > 100 µM | > 100 µM | > 100 µM | 5.45 µM | 22.7 µM | > 100 µM | > 100 µM | 50.1 µM | > 100 µM
Cc1ccc(Nc2nc(NCCO)c3ccccc3n2)cc1C | 1.81 µM | 3.73 µM | 5.01 µM | 19 µM | 3.19 µM | 13 | 4.66 µM | 17.8 µM | 4.29 µM | 16.4 µM | 11 µM | 23.9 µM | 11 µM | 23 µM | 3.25 µM | 10.6 µM | 12.1 µM | 25.3 µM
O=C1/C(=C/c2cccc([N+](=O)[O-])c2)COc2ccc(O)c(O)c21 | 1.79 µM | 3.74 µM | 1.07 µM | 2.29 µM | 0.506 µM | 7.22 | 1.27 µM | 2.59 µM | 1.8 µM | 3.44 µM | 1.36 µM | 2.68 µM | 1.2 µM | 2.71 µM | 2.89 µM | 19.1 µM | 1.57 µM | 2.98 µM
CC/C=C\C[C@H](O)C/C=C1/C(=O)C=C[C@@H]1C/C=C\CCCC(=O)NC(C)C | 2.51 µM | 5.44 µM | 1.94 µM | 4.11 µM | 2.86 µM | 38.9 | 2.08 µM | 4.39 µM | 4.55 µM | 16.6 µM | 1.84 µM | 3.49 µM | 2.63 µM | 8.41 µM | 2.23 µM | 4.11 µM | 1.77 µM | 4.22 µM
COc1cccc(-c2nn(-c3ccccc3)cc2-c2ccnc(NCCNS(=O)(=O)c3ccc(Cl)cc3)c2)c1 | 3.33 µM | 14.7 µM | 2.9 µM | > 100 µM | 3.73 µM | > 100 | 5.61 µM | > 100 µM | > 100 µM | > 100 µM | 4.56 µM | > 100 µM | 4.32 µM | > 100 µM | 3.37 µM | 11.3 µM | 5.51 µM | > 100 µM
CS(=O)(=O)c1ccc(Oc2cc(F)cc(C#N)c2)c2c1[C@H](O)[C@H](F)[C@@H]2F | > 100 µM | > 100 µM | > 100 µM | > 100 µM | > 100 µM | > 100 | > 100 µM | > 100 µM | > 100 µM | > 100 µM | > 100 µM | > 100 µM | > 100 µM | > 100 µM | > 100 µM | > 100 µM | > 100 µM | > 100 µM
CC(O)C1OC(O)C2OC(C)(C)OC12 (stereo not given) |  | > 100 µM |  | > 100 µM |  | > 100 |  | > 100 µM |  | > 100 µM |  | > 100 µM |  | > 100 µM |  | > 100 µM |  | > 100 µM
CC(C)C[C@H](NC(=O)[C@H](Cc1ccccc1)n1ccc(N2CCCCC2)cc1=O)B(O)O | 0.853 µM | > 100 µM | 0.981 µM | 15.4 µM | 1.08 µM | > 100 | 0.467 µM | 10 µM | 3.15 µM | 97.3 µM | 0.406 µM | > 100 µM | 0.327 µM | 1.21 µM | 0.449 µM | > 100 µM | 0.458 µM | 2.44 µM
Cn1c(C(N)=O)cc2c1-c1nc(Nc3ccccc3)ncc1CCC2 | 4.77 µM | 17.7 µM | 1.92 µM | 14.3 µM | 4.65 µM | > 100 | 2.11 µM | 15.9 µM | 2.54 µM | 25.1 µM | 3.61 µM | 50.5 µM | 10.1 µM | 57.1 µM | 10.6 µM | 34.7 µM | 3.92 µM | 17.7 µM
COC(=O)/C=C/c1cc(O)c2c(c1)C(C(=O)OC)C(c1ccc(O)c(O)c1)O2 (stereo not given) | 4.19 µM and 2.49 µM | 29 µM and 12.3 µM | 0.855 µM and 0.301 µM | 23.6 µM and 30.7 µM | < 0.0419 µM and 0.0462 µM | > 100 | 0.644 µM and 0.393 µM | > 100 µM | 4.28 µM and 2.95 µM | > 100 µM | 0.183 µM and 0.0676 µM | 43.6 µM and > 82.3 µM | < 0.0488 µM |  | 3.89 µM and 1.75 µM | > 57.6 µM and 24.1 µM | 0.0678 µM | 4.56 µM and 27.9 µM
CC[C@@H]1C[C@@H]2CN3CCc4c([nH]c5ccc(OC)cc45)C(COC(=O)c4ccc(OC)c(OC)c4)(C2)C13 |  | > 100 µM |  | 98.8 µM |  | 43 |  | > 100 µM |  | > 100 µM |  | > 100 µM |  | > 100 µM |  | 39.2 µM |  | 28 µM
CC(C)(C)[OH+][O-].[O-]c1ccc(Cl)cc1C=Nc1ccc(Cl)cc1[O-].[O]=[V] | 19.3 µM | 37.6 µM | 13.2 µM | 70.6 µM | 31.5 µM | > 100 | 15.1 µM | 52.5 µM | 18.4 µM | 47.3 µM | 16.2 µM | 48 µM | 13.5 µM | 40.5 µM | 21.9 µM | 67.3 µM | 10.7 µM | 37.5 µM
CN/N=C(/Cc1occc(=O)c1O)C(=O)Nc1ccc(C)c(C)c1 |  | > 100 µM |  | > 100 µM |  | > 100 |  | > 100 µM |  | > 100 µM |  | > 100 µM |  | > 100 µM |  | > 100 µM |  | > 100 µM
COc1cc(/C=C(/C)[N+](=O)[O-])ccc1O | 1.99 µM and 1.45 µM | 3.99 µM and 2.85 µM | 1.53 µM and 1.41 µM | 3.19 µM and 3.39 µM | 1.47 µM | > 100 | 2.17 µM and 1.38 µM | 6.07 µM and 3.26 µM | 3.47 µM and 2.66 µM | 10.1 µM and 7.96 µM | 2.38 µM and 1.9 µM | 5.44 µM and 4 µM | 1.96 µM and 1.61 µM | 3.46 µM and 3.17 µM | 2.63 µM | 6.09 µM | 1.77 µM and 1.8 µM | 3.7 µM and 3.71 µM
C=C1C(=O)O[C@H]2[C@H]1CC/C(COC(=O)C(=O)c1c[nH]c3ccccc13)=C\CC[C@@]1(C)O[C@@H]21 | 1.8 µM | 3.91 µM | 1.84 µM | 3.58 µM | 2.28 µM | 9.5 | 2.97 µM | 13.5 µM | 2.35 µM | 6.42 µM | 2.13 µM | 6.1 µM | 1.86 µM | 4.63 µM | 1.21 µM | 2.68 µM | 1.89 µM | 4.29 µM
O=C(Nc1ccc(S(=O)(=O)Nc2nccs2)cc1)c1cccnc1Nc1cccc(Cl)c1 | 18 µM | 33.2 µM | 13.8 µM | 32.3 µM | 10.4 µM | 41.1 | 17 µM | 52.2 µM | 17.6 µM | 44.8 µM | 18.1 µM | 96.6 µM | 13.1 µM | 27.4 µM | 16.7 µM | 30.3 µM | 6.62 µM | 20.3 µM

— PubChem BioAssay (NCI)
